Assay results: paper PMC8041306 (Journal of Medicinal Chemistry, 2021)

melting point [°C]	SMILES
74 to 77	CCCC1(CCC)OC(=O)N2CCN(C(=O)NCc3ccc(F)cc3)CC21 (stereo not shown)
94 to 95	O=C(NCc1ccc(F)cc1)N1CCN2C(=O)OC(C3CCCCC3)(C3CCCCC3)C2C1 (stereo not shown)
120 to 123	O=C(NCc1ccc(F)cc1)N1CCN2C(=O)OC3(c4ccccc4-c4ccccc43)C2C1 (stereo not shown)
153 to 156	C[C@H]1CN(C(=O)NCc2ccc(F)cc2)C[C@H]2N1C(=O)OC2(c1ccccc1)c1ccccc1
217 to 219	Cc1ccccc1C1(c2ccccc2C)OC(=O)N2CCN(C(=O)NCc3ccc(F)cc3)CC21 (stereo not shown)
89 to 90	Cc1ccc(C2(c3ccc(C)cc3)OC(=O)N3CCN(C(=O)NCc4ccc(F)cc4)CC32)cc1 (stereo not shown)
104 to 107	O=C(NCc1ccc(F)cc1)N1CCN2C(=O)OC(c3ccc(F)cc3)(c3ccc(F)cc3)C2C1 (stereo not shown)
172 to 173	COc1ccccc1C1(c2ccccc2OC)OC(=O)N2CCN(C(=O)NCc3ccc(F)cc3)CC21 (stereo not shown)
77 to 79	O=C(NCc1ccc(F)cc1)N1CCN2C(=O)OC(c3ccc(Cl)cc3)(c3ccc(Cl)cc3)C2C1 (stereo not shown)
105 to 107	O=C(NCc1ccc(F)cc1)N1C[C@H](c2ccccc2)N2C(=O)OC(c3ccccc3)(c3ccccc3)[C@H]2C1 [Compound 21, (5S,8aR)-N-(4-Fluorobenzyl)-3-oxo-1,1,5-triphenyltetrahydro-1H-oxazolo[3,4-a]pyrazine-7(3H)-carboxamide]
68 to 69	N=C(NCc1ccccc1)N1CCN2C(=O)OC(c3ccccc3)(c3ccccc3)C2C1 (stereo not shown)
82 to 85	N=C(NCc1ccc(F)cc1)N1CCN2C(=O)OC(c3ccccc3)(c3ccccc3)C2C1 (stereo not shown) [Compound 16, N-(4-Fluorobenzyl)-3-oxo-1,1-diphenyltetrahydro-1H-oxazolo[3,4-a]pyrazine-7(3H)-carboximidamide]
110 to 113	CN(C)c1ccc(C2(c3ccc(N(C)C)cc3)OC(=O)N3CCN(C(=O)NCc4ccc(F)cc4)CC32)cc1 (stereo not shown)
